The text below walks through data of paper PMC4278837, “A Cyclic Peptidic Serine Protease Inhibitor: Increasing Affinity by Increasing Peptide Flexibility” (PLoS ONE, 2014).

Bridge positions count the residues as written; N and C are the ends. Peptide text beside a SMILES is read from it.

Experiment [1] has as its target T1, huPA-H99Y (Homo sapiens, UniProt P00749, H272Y).
T1 construct: To ensure that the uPAs purified from the conditioned media were completely in the two-chain form, they were treated with plasmin; hexa-His (C); made in house; host or cells: HEK293 6E suspension cells
In words: Ki for inhibition of huPA-H99Y, chromogenic substrate S-2444. Type of experiment: biochemical. To be noted: 37°C; means ± S.D.; read-out: K i for inhibition of huPA-H99Y. From the text:
(§1) Determination of Ki values
(§2) The initial reaction velocities were monitored at an absorbance of 405 nm. The inhibition constants (K i) were subsequently determined from the non-linear regression analyses of plots for V i/V o versus [I]0, using Equation 2, derived under assumption of competitive inhibition:
(§3) [drawing 2] (2) where V i and V 0 are the reaction velocities in the presence and absence of inhibitor, respectively; [S]0 and [I]0 are the substrate and inhibitor concentrations, respectively; K M is K M for substrate hydrolysis by each protease. In Equation 2, it is assumed that [S]free ≈ [S]0 and [I]free ≈ [I]0.

For experiment [2], the target named is T2, huPA-H99Y R35A (Homo sapiens, UniProt P00749, H272Y/R198A).
T2 construct: To ensure that the uPAs purified from the conditioned media were completely in the two-chain form, they were treated with plasmin; hexa-His (C); made in house; host or cells: HEK293 6E suspension cells
In words: Ki for inhibition of huPA-H99Y-R35A, chromogenic substrate. To be noted: 37°C; means ± S.D.; read-out: K i for inhibition of huPA-H99Y-R35A. Type of experiment: biochemical.
Excerpt: as §1, §2, §3

Experiment [3] has as its target T3, huPA-H99Y (Homo sapiens, UniProt P00749, C299A/H272Y/N322Q).
T3 construct: recombinant uPA catalytic domain (residues 159–411), harbouring a H99Y mutation; made in house; host or cells: Pichia pastoris X-33 (secreted)
In words: Isothermal titration calorimetry for binding to huPA-H99Y catalytic domain. The conditions noted are these: ITC, 25°C, pH 7.4. On the procedure:
For these experiments, we used the catalytic domain of huPA-H99Y expressed in and purified from Pichia pastoris strain X-33 (see above). The protein was dissolved in and dialysed against a buffer of 20 mM sodium phosphate, pH 7.4, 140 mM NaCl. The protein concentration was determined by absorbance at 280 nm, using an extinction coefficient of 43810 M^−1cm^−1. The peptides were dissolved in the above-mentioned buffer. All isothermal titration calorimetry experiments were performed with a MicroCal^TM ITC200 instrument equilibrated to a temperature of 25°C (298oK). The concentration of uPA-H99Y catalytic domain used in the 200 µl sample cell was 5–50 µM, depending on the affinity of the ligand. Titrations were performed by injecting 2 µl of the ligand until the total syringe volume of 40 µl was spent. Titration of ligand into buffer was performed to obtain buffer correction. The equilibrium association constant KA and the reaction enthalpy ΔH were calculated by fitting the integrated titration peaks using a one-binding-site model in the ITC ORIGIN7 programme package. The following formulas for Gibbs free energy ΔG were used to analyse the measured energies
[drawing 4] (4) where R is the gas constant and T the absolute temperature. ΔS, the entropic change during the reaction, was calculated using equations 3 and 4 and the measured K A and ΔH values.

The target in experiment [4] is huPA-H99Y Q192A (Homo sapiens, UniProt P00749, H272Y/Q373A). In words: Ki for inhibition of huPA-H99Y-Q192A, chromogenic substrate. The conditions noted are these: 37°C; means ± S.D.; read-out: K i for inhibition of huPA-H99Y-Q192A. The arrangement: To ensure that the uPAs purified from the conditioned media were completely in the two-chain form, they were treated with plasmin; hexa-His (C); made in house; host or cells: HEK293 6E suspension cells. In kind it is biochemical.
Excerpt: as §1, §2, §3

For experiment [5], the target named is T4, muPA wt (Mus musculus, UniProt P06869).
T4 construct: To ensure that the uPAs purified from the conditioned media were completely in the two-chain form, they were treated with plasmin; hexa-His (C); made in house; host or cells: HEK293 6E suspension cells
T4 sequence (P06869 180-433 limits assumed): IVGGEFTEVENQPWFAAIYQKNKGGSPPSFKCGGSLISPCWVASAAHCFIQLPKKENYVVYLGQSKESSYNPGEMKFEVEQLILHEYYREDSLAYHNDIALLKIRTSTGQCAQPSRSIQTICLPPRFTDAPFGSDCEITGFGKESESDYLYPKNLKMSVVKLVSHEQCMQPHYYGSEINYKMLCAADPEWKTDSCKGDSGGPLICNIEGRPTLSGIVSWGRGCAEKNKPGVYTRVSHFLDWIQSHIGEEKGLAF
T4 sequence (P06869 21-178 partner limits assumed): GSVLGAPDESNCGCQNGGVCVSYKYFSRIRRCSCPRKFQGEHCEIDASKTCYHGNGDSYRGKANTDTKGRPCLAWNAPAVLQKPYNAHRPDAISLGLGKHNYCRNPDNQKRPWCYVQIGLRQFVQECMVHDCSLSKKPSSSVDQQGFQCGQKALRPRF
To be noted: means ± S.D.; starred values reproduced from previous publications; ref Andersen et al., 2008; Hosseini et al., 2011; read-out: K i for inhibition of muPA wt; cited from earlier work.

Experiment [6] addresses T5, muPA V213T (Mus musculus, UniProt P06869, V396T).
T5 construct: To ensure that the uPAs purified from the conditioned media were completely in the two-chain form, they were treated with plasmin; hexa-His (C); made in house; host or cells: HEK293 6E suspension cells
In words: Ki for inhibition of muPA-V213T, chromogenic substrate. In kind it is biochemical, murine. To be noted: means ± S.D.; read-out: K i for inhibition of muPA-V213T.
Excerpt: as §1, §2, §3

For experiment [7], the target named is T6, muPA K143A (Mus musculus, UniProt P06869, K322A).
T6 construct: To ensure that the uPAs purified from the conditioned media were completely in the two-chain form, they were treated with plasmin; hexa-His (C); made in house; host or cells: HEK293 6E suspension cells
T6 sequence (P06869 180-433 K322A): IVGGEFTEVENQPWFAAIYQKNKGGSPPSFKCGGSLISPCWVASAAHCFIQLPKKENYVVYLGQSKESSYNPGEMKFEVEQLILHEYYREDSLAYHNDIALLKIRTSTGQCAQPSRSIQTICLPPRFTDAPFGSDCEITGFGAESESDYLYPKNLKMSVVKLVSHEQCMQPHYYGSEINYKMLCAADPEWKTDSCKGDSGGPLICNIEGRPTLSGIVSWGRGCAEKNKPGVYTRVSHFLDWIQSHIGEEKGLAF
T6 sequence (P06869 21-178 partner limits assumed): as the sequence (P06869 21-178 partner limits assumed) above
In words: Ki for inhibition of muPA-K143A, chromogenic substrate. Type of experiment: biochemical, murine. The conditions noted are these: means ± S.D.; read-out: K i for inhibition of muPA-K143A.
Excerpt: as §1, §2, §3

Experiment [8] deals with T7, huPA-H99Y K143A (Homo sapiens, UniProt P00749, H272Y/K320A).
T7 construct: To ensure that the uPAs purified from the conditioned media were completely in the two-chain form, they were treated with plasmin; hexa-His (C); made in house; host or cells: HEK293 6E suspension cells
In words: Ki for inhibition of huPA-H99Y-K143A, chromogenic substrate. Type of experiment: biochemical. The conditions noted are these: 37°C; means ± S.D.; read-out: K i for inhibition of huPA-H99Y-K143A.
Excerpt: as §1, §2, §3

For experiment [9], the target named is T8, muPA Y99A (Mus musculus, UniProt P06869, Y274A).
T8 construct: To ensure that the uPAs purified from the conditioned media were completely in the two-chain form, they were treated with plasmin; hexa-His (C); made in house; host or cells: HEK293 6E suspension cells
T8 sequence (P06869 180-433 Y274A): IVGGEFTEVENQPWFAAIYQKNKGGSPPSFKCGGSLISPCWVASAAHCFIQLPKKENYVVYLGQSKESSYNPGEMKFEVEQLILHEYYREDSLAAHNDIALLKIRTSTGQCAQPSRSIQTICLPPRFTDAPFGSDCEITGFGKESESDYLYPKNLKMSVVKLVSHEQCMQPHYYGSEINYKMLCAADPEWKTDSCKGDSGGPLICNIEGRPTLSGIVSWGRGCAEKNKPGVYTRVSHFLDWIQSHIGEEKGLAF
T8 sequence (P06869 21-178 partner limits assumed): as the sequence (P06869 21-178 partner limits assumed) above
In words: Ki for inhibition of muPA-Y99A, chromogenic substrate. In kind it is biochemical, murine. The conditions noted are these: means ± S.D.; read-out: K i for inhibition of muPA-Y99A.
Excerpt: as §1, §2, §3

The target of experiment [10] is T9, muPA (Mus musculus, UniProt P06869).
T9 construct: To ensure that the uPAs purified from the conditioned media were completely in the two-chain form, they were treated with plasmin; hexa-His (C); made in house; host or cells: HEK293 6E suspension cells
T9 sequence (P06869 180-433 limits assumed): as the sequence (P06869 180-433 limits assumed) above
T9 sequence (P06869 21-178 partner limits assumed): as the sequence (P06869 21-178 partner limits assumed) above
In words: Surface plasmon resonance analysis of peptide binding to muPA. To be noted: SPR, 25°C, pH 7.4. Details: species or system murine. As for the experimental part:
(§4) Surface plasmon resonance (SPR) analysis
(§5) To determine the equilibrium binding constants (KD), the association rate constants (kon) and dissociation rate constants (koff) for peptide binding to uPA, surface plasmon resonance analysis was performed on a Biacore T200 instrument (Biacore, Uppsala, Sweden). A CM5 chip was coupled with the uPA variant (muPA or huPAH99Y) to be analysed, by injecting a concentration of 30 µg/mL uPA in immobilization buffer (10 mM sodium acetate, pH 5.0), aiming for an immobilised level of approximately 500 response units (RU). Immobilisation was followed by surface blocking with ethanolamine. A reference cell was prepared in the same way, without coupling of uPA. Mupain-1 variants in HBS with 0.1% BSA, in a dilution series, were injected at a flow rate of 30 µL per min during 60 s at 25°C. Subsequently, the dissociation was monitored during 600 s. Kinetic constants (k on and k off) were calculated with the Biacore Evaluation Software, using the 1∶1 kinetic fit. The K D values were calculated as k off /k on.
A general note: SPR reads the build-up and loss of mass on a sensor chip optically.

Experiment [11] deals with T1, huPA-H99Y. In words: Surface plasmon resonance analysis of peptide binding to huPA-H99Y. To be noted: SPR, 25°C, pH 7.4. On the procedure: as §4, §5
Experiment [12] concerns the target T10, muPA S190A (Mus musculus, UniProt P06869, S373A).
T10 construct: To ensure that the uPAs purified from the conditioned media were completely in the two-chain form, they were treated with plasmin; hexa-His (C); made in house; host or cells: HEK293 6E suspension cells
The experiment in a line: Ki for inhibition of muPA-S190A, chromogenic substrate. In kind it is biochemical, murine. To be noted: means ± S.D.; read-out: K i for inhibition of muPA-S190A.
Excerpt: as §1, §2, §3

The target of experiment [13] is T11, huPA-H99Y V41A (Homo sapiens, UniProt P00749, H272Y/V208A).
T11 construct: To ensure that the uPAs purified from the conditioned media were completely in the two-chain form, they were treated with plasmin; hexa-His (C); made in house; host or cells: HEK293 6E suspension cells
In words: Ki for inhibition of huPA-H99Y-V41A, chromogenic substrate. The conditions noted are these: 37°C; means ± S.D.; read-out: K i for inhibition of huPA-H99Y-V41A. In kind it is biochemical.
Excerpt: as §1, §2, §3

In experiment [14] the target is T12, muPA K41A (Mus musculus, UniProt P06869, K210A).
T12 construct: To ensure that the uPAs purified from the conditioned media were completely in the two-chain form, they were treated with plasmin; hexa-His (C); made in house; host or cells: HEK293 6E suspension cells
T12 sequence (P06869 180-433 K210A): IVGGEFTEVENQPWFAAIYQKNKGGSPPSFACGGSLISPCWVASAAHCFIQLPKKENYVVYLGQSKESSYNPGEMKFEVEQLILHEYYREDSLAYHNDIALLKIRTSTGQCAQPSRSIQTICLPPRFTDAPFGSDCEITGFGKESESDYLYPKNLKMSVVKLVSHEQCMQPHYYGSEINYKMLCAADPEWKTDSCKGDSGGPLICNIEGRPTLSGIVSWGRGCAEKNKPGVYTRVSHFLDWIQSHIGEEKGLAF
T12 sequence (P06869 21-178 partner limits assumed): as the sequence (P06869 21-178 partner limits assumed) above
In words: Ki for inhibition of muPA-K41A, chromogenic substrate. In kind it is biochemical, murine. To be noted: means ± S.D.; read-out: K i for inhibition of muPA-K41A.
Excerpt: as §1, §2, §3

T10 sequence (P06869 180-433 S373A): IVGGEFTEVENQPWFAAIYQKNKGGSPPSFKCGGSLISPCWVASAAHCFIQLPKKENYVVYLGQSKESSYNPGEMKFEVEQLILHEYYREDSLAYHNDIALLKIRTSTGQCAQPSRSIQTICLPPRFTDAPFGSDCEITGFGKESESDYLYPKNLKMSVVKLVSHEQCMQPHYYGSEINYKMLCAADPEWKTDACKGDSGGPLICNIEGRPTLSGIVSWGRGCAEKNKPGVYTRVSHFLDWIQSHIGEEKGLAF
T10 sequence (P06869 21-178 partner limits assumed): as the sequence (P06869 21-178 partner limits assumed) above
T5 sequence (P06869 180-433 V396T): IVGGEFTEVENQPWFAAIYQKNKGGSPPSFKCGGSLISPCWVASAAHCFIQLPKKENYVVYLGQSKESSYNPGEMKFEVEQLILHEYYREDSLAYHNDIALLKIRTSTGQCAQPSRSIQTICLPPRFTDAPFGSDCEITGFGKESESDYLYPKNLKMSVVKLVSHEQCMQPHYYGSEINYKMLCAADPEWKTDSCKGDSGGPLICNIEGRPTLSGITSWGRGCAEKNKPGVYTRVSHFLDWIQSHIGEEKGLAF
T5 sequence (P06869 21-178 partner limits assumed): as the sequence (P06869 21-178 partner limits assumed) above

For `CC(=O)N[C@H]1CSSC[C@@H](C(N)=O)NC(=O)[C@H](CC(=O)O)NC(=O)[C@H](CC(C)C)NC(=O)[C@H](Cc2ccc(O)cc2)NC(=O)[C@H](CCCNC(=N)N)NC(=O)[C@H](C)NC(=O)[C@H](Cc2ccc(O)cc2)NC(=O)[C@H](C)NC(=O)[C@@H]2CCCN2C1=O` [Mupain-1 S5A, CPAYARYLDC] (Ac-CPAYARYLDC-NH2; disulfide 1-10), the Ki in experiment [1] is over 1000 µM.
Still for that read-out and setting: in the case of CPAYSRYLDC [Mupain-1 L8A] it was 19.1 ± 1.1 µM.
Regarding `CC(=O)N[C@H]1CSSC[C@@H](C(N)=O)NC(=O)[C@H](C)NC(=O)[C@H](CC(C)C)NC(=O)[C@H](Cc2ccc(O)cc2)NC(=O)[C@H](CCCNC(=N)N)NC(=O)[C@H](CO)NC(=O)[C@H](Cc2ccc(O)cc2)NC(=O)[C@H](C)NC(=O)[C@@H]2CCCN2C1=O` [Mupain-1 D9A, CPAYSRYLAC] (Ac-CPAYSRYLAC-NH2; disulfide 1-10), the Ki in experiment [2] was 2.68 ± 0.29 µM; in experiment [4], 4.85 ± 0.32 µM; in [5] it was 0.89 ± 0.02 µM; in [6], 0.373 ± 0.055 µM; in experiment [7], 4.34 ± 0.64 µM; in experiment [1], 5.99 ± 0.43 µM. Also, the Ki in experiment [8] stood at 8.74 ± 0.64 µM; in experiment [9], 27.2 ± 3.3 µM; in [12], 3.02 ± 0.33 µM; in experiment [13], 7.2 ± 1.44 µM; in [14], 0.27 ± 0.029 µM. The Kd in experiment [3] is 1.17 ± 0.3 µM; in [11] (calculated as k off/k on, read-out: K D, huPA-H99Y), 1.41 ± 0.11 µM. In addition, the “k off, muPA” value in experiment [10] is listed as 4.01±0.31 (3) s^−1, ×10^2. Besides, the “k on, muPA” value in experiment [10] is 0.985±0.169 (3) M^−1s^−1, ×10^−5. The “k off, huPA-H99Y” value in experiment [11] is given as 36.6±0.21 (3) s^-1, ×10^2. Moreover, in experiment [11], the “k on, huPA-H99Y” value is 2.60±0.20 (3) M^-1s^-1, ×10^-5.
With `CC(=O)N[C@H]1CSSC[C@@H](C(N)=O)NC(=O)[C@H](CC(=O)O)NC(=O)[C@H](CC(C)C)NC(=O)[C@H](Cc2ccc(O)cc2)NC(=O)[C@H](CCCNC(=N)N)NC(=O)[C@H](CO)NC(=O)[C@H](Cc2ccc(O)cc2)NC(=O)[C@H](C)NC(=O)[C@H](C)NC1=O` [Mupain-1 P2A, CAAYSRYLDC] (Ac-CAAYSRYLDC-NH2; disulfide 1-10), the Ki in experiment [1] was over 1000 µM.
